Earlier results as cited in patent EP1033131B1, “Composition in the form of a drink having a delayed alcohol aversion effect” (Semenov, Sergei Petrovich, priority 1997, dated 1999).

How the values were obtained:
[1] = tested on: Ratten; details: in vivo
[2] = in vivo
[3] = for Anregungseffekt der Alkoholwirkung / alkoholische Anregung: result in words
[4] = tested on: Cholinesterase; details: factor of reduction

Question: With 2,6-Diethylester der Ascorbinsäure as the compound, how does the “Verlaufsschwere des Alkoholentzugssyndroms” value [1] read?
Answer: vermindert

Question: And the “Dauer des narkotischen Effekts des Alkohols” value [2]?
Answer: vermindert

Question: And the “Stärke der alkoholischen Anregung, vermindert mit dem Quotienten” value ([3]; factor of reduction)?
Answer: 4

Question: And the “Eintreten der Anregungsphase” value ([3]; in vivo)?
Answer: verlangsamt

Question: What about the “Dauer der alkoholischen Anregung, vermindert um” value ([3]; percent reduction) of the same compound?
Answer: 25%

Question: For 3,6-Diethylester der Ascorbinsäure, which “Dauer des narkotischen Effekts des Alkohols” value [2] is on record?
Answer: vermindert

Question: Which “Aktivität der Cholinesterase, vermindert mit dem Quotienten” value [4] does the source give for `CCOC(=O)C(O)=C(O)C(O)C(O)CO` (centres unmarked) [1-Ethylester der Ascorbinsäure] here?
Answer: > 2

Question: And the “Zeitraum der Anregung, verkürzt mit dem Quotienten” value ([3]; factor of shortening)?
Answer: 2

Question: What about the “Anregungseffekt der Alkoholwirkung / alkoholische Anregung” value [3] of the same compound?
Answer: vermindern

Question: Which results are given for `CCOC1=C(OCC)C(C(O)CO)OC1=O` (centres unmarked) [2,3-Diethylester der Ascorbinsäure]?
Answer: Verlaufsschwere des Alkoholentzugssyndroms [1]: vermindert; Anregungseffekt der Alkoholwirkung / alkoholische Anregung [3]: beeinflusst
